According to the supplement of paper PMC11061612:

How the values were obtained:
Experiment in all cases: combination Emax (second highest fraction inhibited in the dose matrix, 72 h); higher = more inhibition; extreme values may be limits of the assay
[1] = tested on: C3A (Hepatocellular Carcinoma)
Method in brief: (§1)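 After 24 hours at 37°C and 5% CO2 in 1536-well plates, cells in DMEM/F12 or RPMI plus 10% FBS received two-drug dose matrices for 72 hours. Viability came from CellTiter-Glo 2.0 luminescence and was scaled as inhibition, anchored at 0 by vehicle wells and at 1 by blank wells. Combination Emax is taken as the second-highest inhibition in the matrix, and Bliss excess as the observed combination effect less EA + EB − EA·EB, with EA and EB the single-agent effects.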

[2] = tested on: CFPAC-1 (Pancreatic Carcinoma)
Method in brief: as §1

[3] = tested on: DB (B-Cell Non-Hodgkin's Lymphoma)
Method in brief: as §1

DSH1 (Bladder Carcinoma) = tested on: DSH1 (Bladder Carcinoma)
Method in brief: as §1

[4] = tested on: EM-2 (Chronic Myelogenous Leukemia)
Method in brief: as §1

[5] = tested on: G-292-Clone-A141B1 (Osteosarcoma)
Method in brief: as §1

[6] = tested on: HCC2157 (Breast Carcinoma)
Method in brief: as §1

[7] = tested on: JiyoyeP-2003 (Burkitt's Lymphoma)
Method in brief: as §1

[8] = tested on: KARPAS-1106P (B-Cell Non-Hodgkin's Lymphoma)
Method in brief: as §1

[9] = tested on: KARPAS-620 (Plasma Cell Myeloma)
Method in brief: as §1

[10] = tested on: KATOIII (Gastric Carcinoma)
Method in brief: as §1

[11] = tested on: LU-99A (Non-Small Cell Lung Carcinoma)
Method in brief: as §1

[12] = tested on: MFH-ino (Other Solid Carcinomas)
Method in brief: as §1

[13] = tested on: NALM-6 (B-Lymphoblastic Leukemia)
Method in brief: as §1

NCI-H2369 (Mesothelioma) = tested on: NCI-H2369 (Mesothelioma)
Method in brief: as §1

RH-1 (Ewing's Sarcoma) = tested on: RH-1 (Ewing's Sarcoma)
Method in brief: as §1

SK-N-FI (Neuroblastoma) = tested on: SK-N-FI (Neuroblastoma)
Method in brief: as §1

[14] = tested on: SUIT-2 (Pancreatic Carcinoma)
Method in brief: as §1

[15] = tested on: SW1783 (Low Grade Glioma)
Method in brief: as §1

[16] = tested on: SW756 (Cervical Carcinoma)
Method in brief: as §1

SMILES | combination Emax [1] | combination Emax [2] | combination Emax [3] | combination Emax (DSH1 (Bladder Carcinoma)) | combination Emax [4] | combination Emax [5] | combination Emax [6] | combination Emax [7] | combination Emax [8] | combination Emax [9] | combination Emax [10] | combination Emax [11] | combination Emax [12] | combination Emax [13] | combination Emax (NCI-H2369 (Mesothelioma)) | combination Emax (RH-1 (Ewing's Sarcoma)) | combination Emax (SK-N-FI (Neuroblastoma)) | combination Emax [14] | combination Emax [15] | combination Emax [16]
CC1(C)CCC(CN2CCN(c3ccc(C(=O)NS(=O)(=O)c4ccc(NCC5CCOCC5)c([N+](=O)[O-])c4)c(Oc4cnc5[nH]ccc5c4)c3)CC2)=C(c2ccc(Cl)cc2)C1 [Venetoclax] + Cc1cc2ncnn2cc1Nc1ncc2c(n1)n(C1CCOCC1)c(=O)n2C [AZD7648] (first compound max 1 µM, 7x7, partner max 10 µM) | 0.212 | 0.275 | 0.957 | 0.187 | 0.254 | 0.221 | 0.628 | 0.317 | 0.458 | 0.989 | 0.214 | 0.404 | 0.318 | 0.789 | 0.164 | 0.242 | 0.262 | 0.198 | 0.237 | 0.195
CC1(C)CCC(CN2CCN(c3ccc(C(=O)NS(=O)(=O)c4ccc(NCC5CCOCC5)c([N+](=O)[O-])c4)c(Oc4cnc5[nH]ccc5c4)c3)CC2)=C(c2ccc(Cl)cc2)C1 [Venetoclax] + Cn1cnc2c(F)c(Nc3ccc(Br)cc3Cl)c(C(=O)NOCCO)cc21 [Selumetinib] (first compound max 1 µM, 7x7, partner max 3 µM) | 0.434 | 0.275 | 0.914 | 0.341 | 0.424 | 0.146 | 0.278 | 0.304 | 0.476 | 1 | 0.186 | 0.324 | 0.201 | 0.908 | 0.119 | 0.0877 | 0.471 | 0.26 | 0.124 | 0.225
CN(C)CCCOc1ccc(-c2ccc3ncc4c(c3c2)n(C2CCOCC2)c(=O)n4C)cn1 [AZD0156] + CCN(CCO)CCCOc1ccc2c(Nc3cc(CC(=O)Nc4cccc(F)c4)[nH]n3)ncnc2c1 [AZD2811] (first compound max 1 µM, 7x7, partner max 1 µM) | 0.129 | 0.0885 | 0.559 | 0.211 | 0.852 | 0.111 | 0.824 | 0.408 | 0.244 | 0.693 | 0.0129 | 0.473 | 0.136 | 0.766 | 0.0791 | 0.956 | 0.114 | 0.13 | 0.0598 | 0.125
COc1cc2c(cc1OCCCCCOc1cc3c(cc1OC)C(=O)N1C=C(C)C[C@H]1C=N3)N=C[C@@H]1CC(C)=CN1C2=O [SG3199] + O=C(c1cc(Cc2n[nH]c(=O)c3ccccc23)ccc1F)N1CCN(C(=O)C2CC2)CC1 [Olaparib] (first compound max 0.001 µM, 7x7, partner max 10 µM) | 0.215 | 0.175 | 0.347 | 0.25 | 0.292 | 0.145 | 0.264 | 0.124 | 0.467 | 0.139 | 0.0764 | 0.356 | 0.134 | 0.459 | 0.0848 | 0.189 | 0.0819 | 0.187 | 0.0897 | 0.149
COc1cccc(OCCCN)c1-c1cc(Nc2cnc(C#N)cn2)n[nH]1 [Prexasertib] + C[C@@H]1COCCN1C2=NC(=NC(=C2)C3(CC3)[S@](=N)(=O)C)C4=C5C=CNC5=NC=C4 [AZD6738] (first compound max 1 µM, 7x7, partner max 10 µM) | 0.528 | 0.643 | 0.748 | 0.852 | 0.994 | 0.325 | 0.971 | 0.981 | 0.905 | 0.856 | 0.586 | 0.767 | 0.572 | 0.943 | 0.192 | 1 | 0.915 | 0.747 | 0.496 | 0.426
NC1(C(=O)N[C@@H](CCO)c2ccc(Cl)cc2)CCN(c2ncnc3[nH]ccc23)CC1 [Capivasertib] + CC(C)n1c(=O)n(C)c2cnc3cc(F)c(-c4ccc(OCCCN5CCCCC5)nc4)cc3c21 [AZD1390] (first compound max 10 µM, 7x7, partner max 0.3 µM) | 0.255 | 0.235 | 0.386 | 0.615 | 0.426 | 0.219 | 0.999 | 0.685 | 0.392 | 0.775 | 0.345 | 0.407 | 0.28 | 0.675 | 0.222 | 0.333 | 0.361 | 0.139 | 0.454 | 0.31
COc1cc2ncnc(Nc3ccc(F)c(Cl)c3)c2cc1OCCCN1CCOCC1 [Gefitinib] + CC(C)n1c(=O)n(C)c2cnc3cc(F)c(-c4ccc(OCCCN5CCCCC5)nc4)cc3c21 [AZD1390] (first compound max 10 µM, 7x7, partner max 0.3 µM) | 0.377 | 0.304 | 0.328 | 0.858 | 0.174 | 0.0339 | 0.723 | 0.119 | 0.267 | 0.141 | 0.353 | 0.154 | 0 | 0.176 | 0.0747 | 0.188 | 0.175 | 0.111 | 0.0328 | 0.1
Cc1cc2ncnn2cc1Nc1ncc2c(n1)n(C1CCOCC1)c(=O)n2C [AZD7648] + CCN(CCO)CCCOc1ccc2c(Nc3cc(CC(=O)Nc4cccc(F)c4)[nH]n3)ncnc2c1 [AZD2811] (first compound max 10 µM, 7x7, partner max 1 µM) | 0.269 | 0.281 | 0.601 | 0.362 | 0.878 | 0.291 | 0.783 | 0.481 | 0.526 | 0.554 | 0.263 | 0.53 | 0.415 | 0.771 | 0.235 | 0.952 | 0.274 | 0.0971 | 0.293 | 0.108
Cc1nc(Nc2ncc(C(=O)Nc3c(C)cccc3Cl)s2)cc(N2CCN(CCO)CC2)n1 [Dasatinib] + CC(=O)Nc1cccc(-n2c(=O)n(C3CC3)c(=O)c3c(Nc4ccc(I)cc4F)n(C)c(=O)c(C)c32)c1 [Trametinib] (first compound max 2 µM, 7x7, partner max 1 µM) | 0.577 | 0.847 | 0.28 | 0.505 | 0.861 | 0.722 | 0.423 | 0.715 | 0.741 | 0.645 | 0.629 | 0.943 | 0.513 | 0.621 | 0.277 | 0.08 | 0.757 | 0.671 | 0.43 | 0.691
CN(C)CCCOc1ccc(-c2ccc3ncc4c(c3c2)n(C2CCOCC2)c(=O)n4C)cn1 [AZD0156] + C=CCn1c(=O)c2cnc(Nc3ccc(N4CCN(C)CC4)cc3)nc2n1-c1cccc(C(C)(C)O)n1 [AZD1775] (first compound max 1 µM, partner max 1 µM) | 0.524 | 0.473 | 0.891 | 0.421 | 0.902 | 0.197 | 0.832 | 0.937 | 0.874 | 0.511 | 0.213 | 0.677 | 0.169 | 0.906 | 0.207 | 1 | 0.722 | 0.619 | 0.179 | 0.379
C[C@@H](c1ccc2nccn2c1)n1nnc2ncc(-c3cnn(C)c3)nc21 [Savolitinib] + CC1(C)CCC(CN2CCN(c3ccc(C(=O)NS(=O)(=O)c4ccc(NCC5CCOCC5)c([N+](=O)[O-])c4)c(Oc4cnc5[nH]ccc5c4)c3)CC2)=C(c2ccc(Cl)cc2)C1 [Venetoclax] (first compound max 1 µM, 7x7, partner max 1 µM) | 0.148 | 0.0889 | 0.741 | 0.286 | 0.132 | 0.0932 | 0.186 | 0.162 | 0.2 | 0.776 | 0.337 | 0.0525 | 0.171 | 0.316 | 0.096 | 0.0824 | 0.192 | 0.168 | 0.156 | 0.1
Cc1c2c(nn1C)CSCc1cc(n(C)n1)CSc1cc(c3ccccc3c1)OCCCc1c(C(=O)O)n(C)c3c-2c(Cl)ccc13 [AZD5991] + CCN(CCO)CCCOc1ccc2c(Nc3cc(CC(=O)Nc4cccc(F)c4)[nH]n3)ncnc2c1 [AZD2811] (first compound max 1 µM, 7x7, partner max 1 µM) | 0.32 | 0.256 | 0.987 | 0.839 | 0.906 | 0.276 | 0.985 | 0.803 | 0.955 | 1 | 0.116 | 0.37 | 0.251 | 0.655 | 0.176 | 0.956 | 0.335 | 0.19 | 0.246 | 0.204
